Measured values: the OligoGym collection
Several values for one entry are separate records, joined by “and”; a condition that tells them apart may be missing. Equal entries are not always repeated. After the bases stand the sugars from the 5' end (letter, count) and the backbone: PS all phosphorothioate, else s phosphorothioate and o phosphodiester by linkage. Methylation of C is not given here. e = 2'-O-(2-methoxyethyl) (MOE); k = constrained ethyl (cEt); d = 2'-deoxy (DNA)

Key:
[1] = molecular target: SOD1; details: ASO
[2] = molecular target: MALAT1; details: ASO, A431, 0.005 µM

Row | Sequence | target mRNA inhibition [2] | further results
1 | TTACACCACAAGCCAAA (sugars e2 k2 d8 k2 e3, PS) | – | target mRNA inhibition ([1]; HepG2, 4 µM): 60%
2 | GCGATCCCAATTACACC (sugars e2 k2 d9 k2 e2, PS) | – | target mRNA inhibition ([1]; HepG2, 4 µM): 58%
3 | TGAGGACCTGCACTGGT (sugars e3 k2 d7 k2 e3, PS) | – | target mRNA inhibition ([1]; HepG2, 3 µM): 8%
4 | TACAGGTCATTGAAACA (sugars e3 k2 d7 k2 e3, PS) | – | target mRNA inhibition ([1]; HepG2, 3 µM): 9%
5 | TACTTTCCTTCTGCTCG (sugars e3 k2 d7 k2 e3, PS) | – | target mRNA inhibition ([1]; HepG2, 3 µM): 14%
6 | GTGTTTAATGTTTATCA (sugars e2 k2 d9 k2 e2, PS) | – | target mRNA inhibition ([1]; HepG2, 0.1875 µM): 42%; target mRNA inhibition ([1]; HepG2, 0.75 µM): 68%; target mRNA inhibition ([1]; HepG2, 3 µM): 86%; target mRNA inhibition ([1]; HepG2, 5 µM): 86%; target mRNA inhibition ([1]; HepG2, 12 µM): 89%
7 | CCCAATTACACCACAAG (sugars e3 k2 d7 k2 e3, PS) | – | target mRNA inhibition ([1]; HepG2, 3 µM): 29%
8 | AAGGGAATGTTTATTGG (sugars e3 k2 d7 k2 e3, PS) | – | target mRNA inhibition ([1]; HepG2, 3 µM): 2%
9 | TTATTGGGCGATCCCAA (sugars e2 k2 d9 k2 e2, PS) | – | target mRNA inhibition ([1]; HepG2, 4 µM): 41%
10 | GATCATAAATCAGTTTC (sugars e2 k2 d8 k2 e3, PS) | – | target mRNA inhibition ([1]; HepG2, 5 µM): 34%
11 | ATGCAATGGTCTCCTGAGAG (sugars e5 d10 e5, PS) | – | target mRNA inhibition ([1]; HepG2, 5 µM): 0%
12 | ACAGGTACTTTAAAGCA (sugars e2 k2 d9 k2 e2, PS) | – | target mRNA inhibition ([1]; HepG2, 5 µM): 20%
13 | AGTGTTTAATGTTTATCAGG (sugars e5 d10 e5, linkages s1 o3 s11 o3 s1) | – | target mRNA inhibition ([1]; A431, 0.12 µM): 16%; target mRNA inhibition ([1]; A431, 0.6 µM): 49%; target mRNA inhibition ([1]; A431, 3 µM): 60%; target mRNA inhibition ([1]; A431, 15 µM): 75%; target mRNA inhibition ([1]; HepG2, 0.222 µM): 28%; target mRNA inhibition ([1]; HepG2, 0.667 µM): 55%; target mRNA inhibition ([1]; HepG2, 2 µM): 89%; target mRNA inhibition ([1]; HepG2, 6 µM): 80%
14 | CCTCAGACTACATCCAA (sugars e2 k2 d8 k2 e3, PS) | – | target mRNA inhibition ([1]; HepG2, 0.1875 µM): 26%; target mRNA inhibition ([1]; HepG2, 0.75 µM): 51%; target mRNA inhibition ([1]; HepG2, 3 µM): 77%; target mRNA inhibition ([1]; HepG2, 4 µM): 73%; target mRNA inhibition ([1]; HepG2, 12 µM): 91%
15 | ACATGGAATCCATGCAG (sugars e3 k2 d7 k2 e3, PS) | – | target mRNA inhibition ([1]; HepG2, 3 µM): 0%
16 | AATAGCCTCATAATAAG (sugars e2 k2 d8 k2 e3, PS) | – | target mRNA inhibition ([1]; HepG2, 5 µM): 20%
17 | GGCGATCCCAATTACACCAC (sugars e5 d8 e7, linkages s1 o3 s10 o3 s2) | – | target mRNA inhibition ([1]; A431, 0.062 µM): 0%; target mRNA inhibition ([1]; A431, 0.185 µM): 9%; target mRNA inhibition ([1]; A431, 0.556 µM): 0%; target mRNA inhibition ([1]; A431, 1.667 µM): 0%; target mRNA inhibition ([1]; A431, 5 µM): 4%; target mRNA inhibition ([1]; A431, 15 µM): 0%; target mRNA inhibition ([1]; SH-SY5Y, 0.062 µM): 5%; target mRNA inhibition ([1]; SH-SY5Y, 0.185 µM): 2%; target mRNA inhibition ([1]; SH-SY5Y, 0.556 µM): 16%; target mRNA inhibition ([1]; SH-SY5Y, 1.667 µM): 25%; target mRNA inhibition ([1]; SH-SY5Y, 5 µM): 36%; target mRNA inhibition ([1]; SH-SY5Y, 15 µM): 61%
18 | TCAGGATACATTTCTACAGC (sugars e5 d10 e5, PS) | – | target mRNA inhibition ([1]; HepG2, 0.1875 µM): 13%; target mRNA inhibition ([1]; HepG2, 0.75 µM): 42%; target mRNA inhibition ([1]; HepG2, 3 µM): 75%; target mRNA inhibition ([1]; HepG2, 5 µM): 70%; target mRNA inhibition ([1]; HepG2, 12 µM): 92%
19 | ACGCTGCAGGAGACTAC (sugars e3 k2 d7 k2 e3, PS) | – | target mRNA inhibition ([1]; HepG2, 3 µM): 25%
20 | TTTTATTCACAGGCTTG (sugars e2 k2 d8 k2 e3, PS) | – | target mRNA inhibition ([1]; HepG2, 5 µM): 43%
21 | TGTTTATCAGGATACAT (sugars e2 k2 d8 k2 e3, PS) | – | target mRNA inhibition ([1]; HepG2, 4 µM): 70%
22 | ATTACAGTGTTTAATGT (sugars e3 k2 d7 k2 e3, PS) | – | target mRNA inhibition ([1]; HepG2, 3 µM): 24%
23 | ATTCACAGGCTTGAATG (sugars e2 k2 d8 k2 e3, PS) | – | target mRNA inhibition ([1]; HepG2, 5 µM): 19%

Row | Sequence | target mRNA inhibition [2] | further results
24 | AACCAGCACCCCGTCTCCGC (sugars e5 d10 e5, PS) | – | target mRNA inhibition ([1]; HepG2, 4 µM): 11%
25 | AATACCCATCTGTGATTTAA (sugars e5 d10 e5, PS) | – | target mRNA inhibition ([1]; HepG2, 5 µM): 0%
26 | ATGCTTCCCCACACCTT (sugars e3 k2 d7 k2 e3, PS) | – | target mRNA inhibition ([1]; HepG2, 3 µM): 41%
27 | CTGCACTGGTACAGCCT (sugars e3 k2 d7 k2 e3, PS) | – | target mRNA inhibition ([1]; HepG2, 3 µM): 3%
28 | ATTACACCACAAGCCAA (sugars e2 k2 d9 k2 e2, PS) | – | target mRNA inhibition ([1]; HepG2, 4 µM): 63%
29 | CCAATGATGCAATGGTCTCC (sugars e5 d10 e5, PS) | – | target mRNA inhibition ([1]; HepG2, 5 µM): 8%
30 | CCATAACTGATCTGAC (sugars k3 d10 k3, PS) | 13% | –
31 | TACTGGTTTAAGTTGG (sugars k3 d10 k3, PS) | 67% and 77% | –
32 | AATCCCCCCCAAGATT (sugars k3 d10 k3, PS) | -5% | –
33 | CAGTTCAATACTTTCC (sugars k3 d10 k3, PS) | 45% | –
34 | AATCCTGATCTGGTCC (sugars k3 d10 k3, PS) | 46% and 66% | –
35 | ACTTGGAAGTTGATAT (sugars k3 d10 k3, PS) | 4% | –
36 | CTGTTATGTTCACCTG (sugars k3 d10 k3, PS) | 56% and 77% | –
37 | ATAACGAAGAGATACC (sugars k3 d10 k3, PS) | 6% | –
38 | TCAACAATCACTACTC (sugars k3 d10 k3, PS) | 16% | –
39 | AAATCCCTTTACACCT (sugars k3 d10 k3, PS) | 23% | –
40 | CTGCGCTGGCTGCCTC (sugars k3 d10 k3, PS) | 30% | –
41 | TATAGCATCTGTGGAA (sugars k3 d10 k3, PS) | 20% | –
42 | CTCTTCTGATAACGAA (sugars k3 d10 k3, PS) | 23% | –
43 | AGAACCACACACTACC (sugars k3 d10 k3, PS) | 23% | –
44 | AACTAGCACCTGCAGA (sugars k3 d10 k3, PS) | 17% | –
45 | CATTACCCCAACTAAA (sugars k3 d10 k3, PS) | 15% | –
46 | GATTATCCTGATATTG (sugars k3 d10 k3, PS) | 4% | –

Row | Sequence | target mRNA inhibition [2] | further results
47 | GTATAGTTTACCACCT (sugars k3 d10 k3, PS) | 9% | –
48 | AACAATTACCTAAACC (sugars k3 d10 k3, PS) | 16% | –
49 | TTAACCAACTTCCCCT (sugars k3 d10 k3, PS) | 43% | –
50 | AAGCTACAACAAGTAA (sugars k3 d10 k3, PS) | 10% | –
51 | AATCACTACTCCAAGC (sugars k3 d10 k3, PS) | 29% | –
52 | TCAATCACAAATACGA (sugars k3 d10 k3, PS) | 30% | –
53 | AATCGCACTGGCTCCT (sugars k3 d10 k3, PS) | 25% | –
54 | GCGGTACACTCCTTCT (sugars k3 d10 k3, PS) | 28% | –
55 | GCATTACAGTTCTTGA (sugars k3 d10 k3, PS) | 72% and 75% | –
56 | CTAGACAGACCTAAGG (sugars k3 d10 k3, PS) | 2% | –
57 | TCAGACCTTCTGAACC (sugars k3 d10 k3, PS) | -6% | –
58 | TTAATGCACTGGTACA (sugars k3 d10 k3, PS) | 22% | –
59 | CCTGGTTAGGTATGAG (sugars k3 d10 k3, PS) | 19% | –
60 | GAGTATAAGCCTGAAA (sugars k3 d10 k3, PS) | 16% | –
61 | CTTCGCCTTCCCGTAC (sugars k3 d10 k3, PS) | 35% | –
62 | TTGCCCGCTTTCCCCC (sugars k3 d10 k3, PS) | 19% | –
63 | CCTATAAGGACAGCTA (sugars k3 d10 k3, PS) | 15% | –
64 | CTCAAATGCCTATCTT (sugars k3 d10 k3, PS) | 19% | –
65 | TCATTGGGAGTTACTT (sugars k3 d10 k3, PS) | 57% | –
66 | AGACCAACCCCCAGTT (sugars k3 d10 k3, PS) | 0% | –
67 | TATTGGAAAACTTAAC (sugars k3 d10 k3, PS) | 26% | –
68 | ACTCAGAAGATGTTAT (sugars k3 d10 k3, PS) | 30% | –
69 | TCTCATTTATTTCGGC (sugars k3 d10 k3, PS) | 79% and 93% | –

Row | Sequence | target mRNA inhibition [2] | further results
70 | CTGCCAGGCTGGTTAT (sugars k3 d10 k3, PS) | 1% | –
71 | CTTAGTAACCTATTGA (sugars k3 d10 k3, PS) | 34% | –
72 | ACTACTCCAAGCATTG (sugars k3 d10 k3, PS) | 36% | –
73 | AGGCAAACGAAACATT (sugars k3 d10 k3, PS) | 35% | –
74 | TACTTTAAGCCTTCGG (sugars k3 d10 k3, PS) | 29% | –
75 | GATAACGAAGAGATAC (sugars k3 d10 k3, PS) | 19% | –
76 | TACTATTGTCCCATAA (sugars k3 d10 k3, PS) | 22% | –
77 | CCCCGCCTCAGTTACA (sugars k3 d10 k3, PS) | 35% | –
78 | CTGAAAACTCCCCCCC (sugars k3 d10 k3, PS) | -2% | –
79 | AACTTATCTGTTAACA (sugars k3 d10 k3, PS) | 30% | –
80 | TCTACAAGTTACATGT (sugars k3 d10 k3, PS) | 23% | –
81 | CAGCGGGATCAGAACA (sugars k3 d10 k3, PS) | 23% | –
82 | AATGGTAGATTCCGTA (sugars k3 d10 k3, PS) | 47% | –
83 | TCTCCAATGGACATCT (sugars k3 d10 k3, PS) | 8% | –
84 | GGTTACCATAAGTAAG (sugars k3 d10 k3, PS) | 37% | –
85 | CCAATACTTGTCTTAG (sugars k3 d10 k3, PS) | 64% and 52% | –
86 | GCTTATTCCCCAATGG (sugars k3 d10 k3, PS) | 73% and 48% and 50% | –
87 | TGCTTACACACAACTG (sugars k3 d10 k3, PS) | 35% | –
88 | TGAAAACTCCCCCCCG (sugars k3 d10 k3, PS) | 21% | –
89 | GCATTGCCCTTCTATT (sugars k3 d10 k3, PS) | 70% and 46% | –
90 | CTGTTAACAGCTGCCT (sugars k3 d10 k3, PS) | 52% | –
91 | GAATTCAACTGGAAGC (sugars k3 d10 k3, PS) | 7% | –
92 | ACTTTAAATTGGTAGC (sugars k3 d10 k3, PS) | 28% | –
